This note sets out measurements from patent EP4768487A1, “FUSED LACTAM RING COMPOUND AND USE THEREOF” (Chengdu Zenitar Biomedical Technology Co., Ltd., priority 2023, dated 2025).

SMILES strings stand for the structures. pIC50: −log10 of the molar value. Like-named read-outs stand apart in the source and are kept apart here.

The target in one series is T1, PARP1 (Homo sapiens, UniProt P09874).
T1 construct: purchased BPS 80501
As to the kind of experiment: PARP1 enzyme assay (histone-coated plate, chemiluminescence). The conditions noted are these: PARP1 0.02 nM, DNA 0.8 nM, NAD+ 3.5 µM; read-out: PARP-1 IC50. The class given is biochemical.

The test system of series [1] is BRCA wild-type DLD-1 cells. As to the kind of experiment: Anti-proliferative activity against cells (CCK8): DLD-1. The class given is cell-based. The note with it: Homo sapiens, 72 h + 96 h culture. Here is the method:
BRCA wild-type DLD-1 cells were cultured in an RPMI-1640 medium containing 10% fetal bovine serum, 100 U/mL penicillin, and 100 µg/mL streptomycin, and incubated in an incubator with 5% saturated CO2 at 37 °C. When the cells grew to 80% confluence, they were collected, centrifuged at 300 g for 10 min, and then plated onto a 96-well plate at 1000 cells/well. After 24 h, different final concentrations (0 µM, 1 µM, and 10 µM) of PARPi were added, and the cells were cultured for another 72 h. The cells were subjected to medium exchange treatment (re-supplemented with PARPi at the same final concentrations) and then cultured for another 96 h. The 96-well plate was taken out.

A short description of series [2]: Cerebrospinal fluid and plasma distribution in vivo. The note with it: rat, male rats, intravenous 5 mg/kg, n = 1. The method, then: Experimental procedures: The compound was weighed out, a small amount of DMSO was added, and then a sodium chloride solution for injection was added to prepare a 5 mg·mL^-1 compound solution for later administration. […] 10 µL of the plasma and 10 µL of the cerebrospinal fluid were each added to a centrifuge tube, and 40 µL of acetonitrile containing 20 ng·mL^-1 internal standard SAHA was added for precipitation. […] The supernatant was collected and transferred to a sample vial for later analysis. Range of standard curve: 1-1000 ng·mL^-1.

Series [3] deals with BRCA-mutated MDA-MB-436 cells. As to the kind of experiment: Anti-proliferative activity against cells (CCK8): MDA-MB-436. The class given is cell-based. The note with it: Homo sapiens, 72 h + 96 h culture.
In series [4] the target is T2, hERG potassium ion channel (Homo sapiens, UniProt Q12809).
T2 construct: expressed in transfected cells; host or cells: CHO cells
T2 sequence (Q12809 whole entry): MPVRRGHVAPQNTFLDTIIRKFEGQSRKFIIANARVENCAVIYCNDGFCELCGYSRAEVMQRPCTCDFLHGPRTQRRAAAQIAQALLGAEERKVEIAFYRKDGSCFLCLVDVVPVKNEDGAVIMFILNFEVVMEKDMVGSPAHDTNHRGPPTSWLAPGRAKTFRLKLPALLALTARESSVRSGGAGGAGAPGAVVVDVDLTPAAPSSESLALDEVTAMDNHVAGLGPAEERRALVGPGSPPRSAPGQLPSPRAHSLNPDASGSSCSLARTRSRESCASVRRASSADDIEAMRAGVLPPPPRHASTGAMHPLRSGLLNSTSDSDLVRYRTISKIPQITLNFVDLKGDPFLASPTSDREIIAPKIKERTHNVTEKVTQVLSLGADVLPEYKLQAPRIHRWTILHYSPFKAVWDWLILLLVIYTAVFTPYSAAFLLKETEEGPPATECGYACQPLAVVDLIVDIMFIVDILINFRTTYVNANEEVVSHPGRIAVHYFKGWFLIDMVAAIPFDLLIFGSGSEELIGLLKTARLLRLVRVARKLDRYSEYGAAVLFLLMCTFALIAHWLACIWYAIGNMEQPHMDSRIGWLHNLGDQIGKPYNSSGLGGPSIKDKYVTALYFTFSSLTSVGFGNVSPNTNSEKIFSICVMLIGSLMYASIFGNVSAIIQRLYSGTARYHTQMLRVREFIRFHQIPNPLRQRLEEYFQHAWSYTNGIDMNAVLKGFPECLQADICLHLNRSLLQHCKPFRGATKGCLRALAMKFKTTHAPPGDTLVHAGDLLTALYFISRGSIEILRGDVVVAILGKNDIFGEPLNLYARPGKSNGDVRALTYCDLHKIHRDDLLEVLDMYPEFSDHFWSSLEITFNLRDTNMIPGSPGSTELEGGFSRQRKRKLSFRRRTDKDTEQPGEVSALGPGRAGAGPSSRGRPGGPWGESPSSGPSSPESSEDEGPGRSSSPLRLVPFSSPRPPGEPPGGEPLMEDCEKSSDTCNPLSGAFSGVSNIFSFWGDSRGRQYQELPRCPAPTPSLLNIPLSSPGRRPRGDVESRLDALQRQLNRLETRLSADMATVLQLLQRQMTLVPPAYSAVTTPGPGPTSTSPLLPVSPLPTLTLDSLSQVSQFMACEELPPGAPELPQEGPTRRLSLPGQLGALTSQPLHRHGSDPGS
Nature of the series: Inhibition of hERG potassium ion channel (Qpatch, CHO cells stably expressing hERG). The class given is cell-based. The note with it: for inhibitory effects on the hERG potassium ion channel (in words): conclusion of Table 17; for inhibition at 2.5 min, 20 µM: human, CHO cells stably expressing hERG, read-out: Inhibition rate at 20 µM. The method, then:
Cell culture and treatment: CHO cells stably expressing hERG were cultured in a cell culture flask and incubated in an incubator with 5% CO2 at 37 °C. When the cell density reached 60%-80%, the cell culture medium was removed by pipetting. The cells were washed once with PBS, and then Detachin was added for detachment. After complete detachment, a culture medium was added for neutralization. The cells were then centrifuged, and the supernatant was removed by pipetting. A culture medium was further added for resuspension, and the cell density was adjusted to (2-5) × 10^6 cells/mL for later use.
Compound preparation: The compound stock solution was diluted with 100% DMSO. Specifically, 10 µL of the compound stock solution was added to 20 µL of DMSO, followed by a 3-fold serial dilution to obtain 6 concentrations. 4 µL of each of the 6 compound solutions at different concentrations was taken and added to 396 µL of an extracellular fluid, resulting in a 100-fold dilution to obtain 6 intermediate concentrations. Then, 80 µL of each of the 6 intermediate-concentration compound solutions was taken and added to 320 µL of an extracellular fluid, resulting in a 5-fold dilution to achieve the final test concentrations. The highest test concentration was 40 µM. […] DMSO at this concentration has no effect on the hERG potassium channel. During the compound preparation, the entire dilution process was completed by a Bravo instrument.
Electrophysiological recording process: The single-cell high-impedance sealing and whole-cell mode formation processes were all completed automatically by a Qpatch instrument. After achieving the whole-cell recording mode, the cells were clamped at -80 mV. Before a 5-second +40 mV depolarizing stimulus was applied, a 50-millisecond -50 mV prepulse voltage was first applied. The potential was then repolarized to -50 mV and held for 5 s, and finally returned to -80 mV. This voltage stimulation was applied every 15 s. After 2 min of recording, the extracellular fluid was administered, followed by recording for 5 min. Then, the compound administration process began, starting from the lowest test compound concentration. Each test concentration was applied for 2.5 min. After all the concentrations were applied consecutively, the positive control compound, 3 µM Cisapride, was administered. At least 3 cells (n ≥ 3) were tested for each concentration.
Data processing: Data analysis and processing were performed using GraphPad Prism 5.0 and Excel software. The IC50 of the compound was calculated using GraphPad Prism 5 software by equation fitting as follows: Y = Bottom + (Top−Bottom)/(1+10^(∧)((LogIC50−X)*HillSLope)) [formula] where X is the Log value of the test concentration of the test sample, Y is the inhibition percentage at the corresponding concentration, and Bottom and Top are the minimum and maximum inhibition percentages, respectively. Table 17. Results of inhibition of hERG potassium ion channel by compounds
(Block of hERG is tested as a sign of cardiac risk.)

[5] abbreviates: cerebrospinal fluid, read-out: Cerebrospinal fluid.

T1 sequence (P09874 whole entry): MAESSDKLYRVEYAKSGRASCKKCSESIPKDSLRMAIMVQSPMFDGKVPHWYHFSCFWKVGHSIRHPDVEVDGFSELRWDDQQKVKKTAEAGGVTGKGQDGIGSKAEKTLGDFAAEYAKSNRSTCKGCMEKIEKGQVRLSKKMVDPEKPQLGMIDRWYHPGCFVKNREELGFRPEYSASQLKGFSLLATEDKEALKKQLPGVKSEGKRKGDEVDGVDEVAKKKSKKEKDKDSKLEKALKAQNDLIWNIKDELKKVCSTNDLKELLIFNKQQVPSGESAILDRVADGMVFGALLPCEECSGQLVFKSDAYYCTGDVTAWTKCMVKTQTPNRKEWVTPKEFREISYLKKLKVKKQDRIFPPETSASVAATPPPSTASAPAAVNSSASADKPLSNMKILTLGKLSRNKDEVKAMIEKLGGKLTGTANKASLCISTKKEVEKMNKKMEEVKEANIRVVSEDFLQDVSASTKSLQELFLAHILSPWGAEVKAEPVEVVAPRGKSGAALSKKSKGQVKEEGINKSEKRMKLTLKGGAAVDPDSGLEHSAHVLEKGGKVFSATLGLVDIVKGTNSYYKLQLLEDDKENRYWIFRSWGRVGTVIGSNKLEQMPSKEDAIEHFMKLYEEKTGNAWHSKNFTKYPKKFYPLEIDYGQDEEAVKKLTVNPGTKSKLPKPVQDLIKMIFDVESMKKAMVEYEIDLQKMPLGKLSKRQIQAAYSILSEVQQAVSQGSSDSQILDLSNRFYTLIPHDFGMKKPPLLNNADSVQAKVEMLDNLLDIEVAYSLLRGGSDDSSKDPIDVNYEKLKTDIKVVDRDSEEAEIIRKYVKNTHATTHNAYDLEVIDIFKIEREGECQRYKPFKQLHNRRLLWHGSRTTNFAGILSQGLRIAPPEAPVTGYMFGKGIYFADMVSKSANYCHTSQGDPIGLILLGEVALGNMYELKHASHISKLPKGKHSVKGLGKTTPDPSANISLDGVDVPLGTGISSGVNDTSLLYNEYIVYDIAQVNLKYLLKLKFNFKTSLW

In general, pIC50 refers to −log10 of the IC50, conventionally taken in molar units. On to `CNC(=O)c1ccc(N2CCN(CC3Cc4[nH]c(=O)c(Cl)cc4CO3)CC2)c(F)n1` (stereo not shown) [Example 64, 5-(4-((3-Chloro-2-oxo-1,5,7,8-tetrahydro-2H-pyrano[4,3-b]pyridin-7-yl)methyl)piperazin-1-yl)-6-fluoro-N-methylpicolinamide], for which the results for the pIC50 (at PARP1; in series [1]) were 6.30 to 7.30 and less than 6.00, respectively. In addition, the concentration at 0.25 h came to 102 ng/g in series [2] (setting [5]) and 1620 ng/mL in series [2] (plasma, read-out: Plasma). For the same compound, the concentration at 2 h turned out to be 0 ng/g in series [2] (setting [5]) and 503 ng/mL in series [2] (plasma, read-out: Plasma).
For `CNC(=O)c1ccc(N2CCN(CC3Cc4[nH]c(=O)c(C)cc4CO3)CC2)c(F)n1` (stereo not shown) [Example 39, 6-Fluoro-N-methyl-5-(4-((3-methyl-2-oxo-1,5,7,8-tetrahydro-2H-pyrano[4,3-b]pyridin-7-yl)methyl)piperazin-1-yl)picolinamide], the values for the pIC50 (on PARP1; in series [1]) were 6.30 to 7.30 and less than 6.00, respectively. Besides, the concentration at 0.25 h in series [2] (setting [5]) amounted to 103 ng/g; in series [2] (plasma, read-out: Plasma), 8200 ng/mL. The concentration at 2 h in series [2] (setting [5]) came to 26 ng/g; in series [2] (plasma, read-out: Plasma), 4890 ng/mL.
Regarding `CNC(=O)c1ccc(N2CCN(C[C@H]3CCc4nc(C)c(=O)[nH]c4C3)CC2)c(C)n1` [Example 47, (S)-N,6-Dimethyl-5-(4-((2-methyl-3-oxo-3,4,5,6,7,8-hexahydroquinoxalin-6-yl)methyl)piperazin-1-yl)picolinamide], the pIC50 is not below 7.30 on PARP1, 8.40 in series [3] and less than 6.00 in series [1]. In addition, the concentration at 0.25 h is 64 ng/g in series [2] (setting [5]) and 1010 ng/mL in series [2] (plasma, read-out: Plasma). For the same compound, the concentration at 2 h turned out to be 13 ng/g in series [2] (setting [5]) and 43 ng/mL in series [2] (plasma, read-out: Plasma).
Usually inhibition stands for the drop in the measured response relative to a control, in per cent. Consider `CCc1cc2c([nH]c1=O)CC(CN1CC=C(c3ccc(C(=O)NC)nc3F)CC1)OC2` (stereo not shown) [Compound 6, 1'-((3-Ethyl-2-oxo-1,5,7,8-tetrahydro-2H-pyrano[4,3-b]pyridin-7-yl)methyl)-2-fluoro -N-methyl-1',2',3',6'-tetrahydro-[3,4'-bipyridine]-6-carbo xamide], for which the pIC50 on PARP1 was not below 7.30; in series [3], 9.00; in series [1] it was less than 6.00. Further, the “inhibitory effects on the hERG potassium ion channel (in words)” value (“inhibitory effects” below) in series [4] was “Conclusion: Compounds 2, 6, 45, 62, 67, 74, 83, 87, etc., of the present disclosure exhibited relatively weak inhibitory effects on the hERG potassium ion channel”. Further, in series [4], the inhibition at 2.5 min, 20 µM came to 7.97%.
With `[2H]C([2H])([C@H]1CCc2nc(C)c(=O)[nH]c2C1)N1CCN(c2ccc(C(=O)NC)nc2F)CC1` [Example 83, (S)-6-Fluoro-N-methyl-5-(4-((2-methyl-3-oxo-3,4,5,6,7,8-hexahydroquinoxalin-6-yl)methyl-d 2)piperazin-1-yl)picolinamide], the pIC50 in series [1] was less than 6.00. Moreover, in series [4], the “inhibitory effects” value is listed as “Conclusion: Compounds 2, 6, 45, 62, 67, 74, 83, 87, etc., of the present disclosure exhibited relatively weak inhibitory effects on the hERG potassium ion channel” and the inhibition at 2.5 min, 20 µM turned out to be 0.92%. In addition, in series [2] (setting [5]), the concentration at 0.25 h is 86 ng/g and the concentration at 2 h worked out at 0 ng/g. Besides, in series [2] (plasma, read-out: Plasma), the concentration at 0.25 h came out at 1500 ng/mL and the concentration at 2 h was determined as 28 ng/mL.
For `CNC(=O)c1ccc(N2CCN(C[C@H]3CCc4nc(C5CC5)c(=O)[nH]c4C3)CC2)cn1` [Example 58, (S)-5-(4-((2-Cyclopropyl-3-oxo-3,4,5,6,7,8-hexahydroquinoxalin-6-yl)methyl)piperazin-1-yl) -N-methylpicolinamide], the pIC50 was not below 7.30 at PARP1, 6.85 in series [3] and less than 6.00 in series [1].
For `CNC(=O)c1ccc(N2CCN(CC3Cc4[nH]c(=O)c(SC)cc4CO3)CC2)c(C)n1` (stereo not shown) [Example 87, N,6-Dimethyl-5-(4-((3-(methylthio)-2-oxo-1,5,7,8-tetrahydro-2H-pyrano[4,3-b]pyridin-7-yl)methyl)piperazin-1-yl)picolinamide], the values for the pIC50 (on PARP1; in series [3]; in series [1]) were not below 7.30, 8.07 and less than 6.00, respectively. Also, the “inhibitory effects” value in series [4] is listed as “Conclusion: Compounds 2, 6, 45, 62, 67, 74, 83, 87, etc., of the present disclosure exhibited relatively weak inhibitory effects on the hERG potassium ion channel”. Further, the inhibition at 2.5 min, 20 µM in series [4] came out at 7.34%.
Regarding `Cc1cc2c([nH]c1=O)CC(CN1CCN(c3ccc(C(=O)NC4CC4)nc3Cl)CC1)OC2` (stereo not shown) [Example 62, 6-Chloro-N-cyclopropyl-5-(4-((3-methyl-2-oxo-1,5,7,8-tetrahydro-2H-pyrano[4,3-b]pyridin-7-yl)methyl)piperazin-1-yl)picolinamide], the pIC50 on PARP1 is not below 7.30; in series [3], 8.46; in series [1] it was less than 6.00. Besides, the “inhibitory effects” value in series [4] is “Conclusion: Compounds 2, 6, 45, 62, 67, 74, 83, 87, etc., of the present disclosure exhibited relatively weak inhibitory effects on the hERG potassium ion channel”. In addition, the inhibition at 2.5 min, 20 µM in series [4] stood at 49.8%.
For the compound `[2H]C([2H])([2H])NC(=O)c1ccc(N2CCN(C[C@H]3CCc4nc(C)c(=O)[nH]c4C3)CC2)c(F)n1` [Example 82, (S)-6-Fluoro-N-(methyl-d3)-5-(4-((2-methyl-3-oxo-3,4,5,6,7,8-hexahydroquinoxalin-6-yl)methyl)piperazin-1-yl)picolinamide], in series [1], the pIC50 is less than 6.00. For the same compound, in series [2] (setting [5]), the concentration at 0.25 h was determined as 119 ng/g and the concentration at 2 h stood at 0 ng/g. In series [2] (plasma, read-out: Plasma), the concentration at 0.25 h was 2740 ng/mL and the concentration at 2 h is 77 ng/mL.
`CCc1cc2c([nH]c1=O)CC(CN1CC=C(c3ccc(C(=O)NC)nc3)CC1)OC2` (stereo not shown) [Compound 5, 1'-((3-Ethyl-2-oxo-1,5,7,8-tetrahydro-2H-pyrano[4,3-b]pyridin-7-yl)methyl)-N-methyl-1',2',3',6'-tetrahydro-[3,4'-bipyridine]-6-carboxamide]: the pIC50 was not below 7.30 at PARP1, 8.12 in series [3] and less than 6.00 in series [1].
With `CNC(=O)c1ccc(N2CCN(CC3COc4cc(C)c(=O)[nH]c4C3)CC2)c(F)n1` (stereo not shown) [Example 101, 6-Fluoro-N-methyl-5-(4-((7-methyl-6-oxo-3,4,5,6-tetrahydro-2H-pyrano[3,2-b]pyridin-3-yl)methyl)piperazin-1-yl)picolinamide], the results for the pIC50 (on PARP1; in series [1]) were not below 7.30 and less than 6.00, respectively. The concentration at 0.25 h in series [2] (setting [5]) stood at 52 ng/g; in series [2] (plasma, read-out: Plasma) it was 2820 ng/mL. Besides, the concentration at 2 h in series [2] (setting [5]) came out at 8 ng/g; in series [2] (plasma, read-out: Plasma) it was 592 ng/mL.
For `CNC(=O)c1ccc(N2CCN(C[C@H]3Cc4[nH]c(=O)c(C)cc4CO3)CC2)c(Cl)n1` [Example 95, (R)-6-chloro-N-methyl-5-(4-((3-methyl-2-oxo-1,5,7,8-tetrahydro-2H-pyrano[4,3-b]pyridin-7-yl)methyl)piperazin-1-yl)picolinamide], the pIC50 at PARP1 is not below 7.30; in series [3] it was 7.98; in series [1], less than 6.00.
